From patent US11926574B2, “Dimethoxyphenylalkylamine activators of serotonin receptors” (Entheogenix Biosciences, Inc., priority 2021, dated 2024)
Where a name gives a salt, the structure may show the parent alone.

The compounds below were run against 5HT2A (Homo sapiens, UniProt P28223) (assay: 5HT2A Activity (% Max Activation @ 0.3 uM)).
5HT2A, sequence (P28223 whole entry): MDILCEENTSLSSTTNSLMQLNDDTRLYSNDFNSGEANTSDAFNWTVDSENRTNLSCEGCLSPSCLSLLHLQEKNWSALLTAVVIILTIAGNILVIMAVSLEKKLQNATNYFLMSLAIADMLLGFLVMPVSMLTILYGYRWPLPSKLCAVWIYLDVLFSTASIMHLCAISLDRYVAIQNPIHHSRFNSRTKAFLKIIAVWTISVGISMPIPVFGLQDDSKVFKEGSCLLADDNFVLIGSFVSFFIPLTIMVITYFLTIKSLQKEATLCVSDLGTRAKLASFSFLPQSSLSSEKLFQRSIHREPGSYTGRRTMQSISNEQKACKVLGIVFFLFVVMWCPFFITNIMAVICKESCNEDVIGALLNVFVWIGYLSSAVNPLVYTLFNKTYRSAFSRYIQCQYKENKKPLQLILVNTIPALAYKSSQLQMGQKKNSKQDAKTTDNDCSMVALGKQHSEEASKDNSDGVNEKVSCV
Type: cell-based
Compound `COc1ccc(OC)c2c1CCC(NCc1cc(C)cc(Cl)c1)C2` (stereo not shown) [Compound 1-1, N-(3-chloro-5-methylbenzyl)-5,8-dimethoxy-1,2,3,4-tetrahydronaphthalen-2-amine] has an Emax at 0.3 µM of 67%. Compound `COc1cc(I)c(OC)c2c1CC(NCc1cc(C)cc(Cl)c1)CC2` (stereo not shown) [Compound 1-2A, N-(3-chloro-5-methylbenzyl)-6-iodo-5,8-dimethoxy-1,2,3,4-tetrahydronaphthalen-2-amine] has an Emax at 0.3 µM of 73%. `COc1ccc(OC)c2c1CCC(NCc1cc(C)cc(F)c1)C2` (stereo not shown) [Compound 1-3, N-(3-fluoro-5-methylbenzyl)-5,8-dimethoxy-1,2,3,4-tetrahydronaphthalen-2-amine] showed an Emax at 0.3 µM of 76%. With `COc1ccc(OC)c2c1CCC(NCc1cc(C)cc(Br)c1)C2` (stereo not shown) [Compound 1-4, N-(3-bromo-5-methylbenzyl)-5,8-dimethoxy-1,2,3,4-tetrahydronaphthalen-2-amine] the Emax at 0.3 µM was 42%. For `COc1ccc(OC)c2c1CCC(NCc1cc(C)cc(I)c1)C2` (stereo not shown) [Compound 1-5, N-(3-iodo-5-methylbenzyl)-5,8-dimethoxy-1,2,3,4-tetrahydronaphthalen-2-amine], the Emax at 0.3 µM was 12%. For `COc1ccc(OC)c2c1CCC(NCc1cccc(Cl)c1C)C2` (stereo not shown) [Compound 1-9, N-(3-chloro-2-methylbenzyl)-5,8-dimethoxy-1,2,3,4-tetrahydronaphthalen-2-amine], the Emax at 0.3 µM was 7%. With `COc1ccc(OC)c2c1CCC(NCc1cccc(C)c1Cl)C2` (stereo not shown) [Compound 1-10, N-(2-chloro-3-methylbenzyl)-5,8-dimethoxy-1,2,3,4-tetrahydronaphthalen-2-amine] the Emax at 0.3 µM was 2%. With `COc1ccc(OC)c2c1CCC(NCc1ccc(Cl)cc1C)C2` (stereo not shown) [Compound 1-11, N-(4-chloro-2-methylbenzyl)-5,8-dimethoxy-1,2,3,4-tetrahydronaphthalen-2-amine] the Emax at 0.3 µM was 1%. Compound `COc1ccc(OC)c2c1CCC(NCc1ccc(C)cc1Cl)C2` (stereo not shown) [Compound 1-12, N-(2-chloro-4-methylbenzyl)-5,8-dimethoxy-1,2,3,4-tetrahydronaphthalen-2-amine] has an Emax at 0.3 µM of 4%. In the case of `COc1ccc(OC)c2c1CCC(NCc1cc(C)ccc1Cl)C2` (stereo not shown) [Compound 1-13, N-(2-chloro-5-methylbenzyl)-5,8-dimethoxy-1,2,3,4-tetrahydronaphthalen-2-Amine], the Emax at 0.3 µM is reported as 15%. `COc1ccc(OC)c2c1CCC(NCc1cc(Cl)cc(Cl)c1)C2` (stereo not shown) [Compound 1-15, N-(3,5-dichlorobenzyl)-5,8-dimethoxy-1,2,3,4-tetrahydronaphthalen-2-amine] gave an Emax at 0.3 µM of 11%. In the case of `COc1ccc(OC)c2c1CCC(NCc1cccc(Cl)c1Cl)C2` (stereo not shown) [Compound 1-17, N-(2,3-dichlorobenzyl)-5,8-dimethoxy-1,2,3,4-tetrahydronaphthalen-2-amine], the Emax at 0.3 µM is reported as 1%. Compound `COc1ccc(OC)c2c1CCC(NCc1ccccc1)C2` (stereo not shown) [Compound 1-18, N-benzyl-5,8-dimethoxy-1,2,3,4-tetrahydronaphthalen-2-amine] has an Emax at 0.3 µM of 6%. Work on `COc1cc(C)c(OC)c2c1CC(NCc1cc(C)cc(Cl)c1)CC2` (stereo not shown) [Compound 1-19, N-(3-chloro-5-methylbenzyl)-5,8-dimethoxy-6-methyl-1,2,3,4-tetrahydro-naphthalen-2-amine hydrochloride] yielded an Emax at 0.3 µM of 73%. In the case of `COc1ccc(OC)c2c1CC(NCc1cc(C)cc(Cl)c1)C2` [Compound 1-20, N-(3-chloro-5-methylbenzyl)-4,7-dimethoxy-2,3-dihydro-1H-inden-2-amine hydrochloride], the Emax at 0.3 µM is reported as 59%. `COc1ccc(OC)c2c1CCC2NCc1cc(C)cc(Cl)c1` (stereo not shown) [Compound 1-21, N-(3-chloro-5-methylbenzyl)-4,7-dimethoxy-2,3-dihydro-1H-1-inden-1-amine] showed an Emax at 0.3 µM of 9%. With `COc1ccc(OC)c(CCNCc2cc(C)cc(F)c2)c1` [Compound 2-2, 2-(2,5-dimethoxyphenyl)-N-(3-fluoro-5-methylbenzyl)ethan-1-amine] the Emax at 0.3 µM was 76%. `COc1ccc(OC)c(CCNCc2ccc(C)cc2Cl)c1` [Compound 2-3, N-(2-chloro-4-methylbenzyl)-2-(2,5-dimethoxyphenyl)ethan-1-amine] gave an Emax at 0.3 µM of 8%. In the case of `COc1ccc(OC)c(CCNCc2cc(C)ccc2Cl)c1` [Compound 2-4, N-(2-chloro-5-methylbenzyl)-2-(2,5-dimethoxyphenyl)ethan-1-amine], the Emax at 0.3 µM is reported as 67%. `COc1ccc(OC)c(CCNCc2cc(Cl)cc(Cl)c2)c1` [Compound 2-6, N-(3,5-dichlorobenzyl)-2-(2,5-dimethoxyphenyl)ethan-1-amine] was tested, and the Emax at 0.3 µM was 68%. Work on `COc1ccc(OC)c(CCNCc2cccc(Cl)c2Cl)c1` [Compound 2-8, N-(2,3-dichlorobenzyl)-2-(2,5-dimethoxyphenyl)ethan-1-amine] yielded an Emax at 0.3 µM of 33%. Compound `COc1ccc(OC)c(CCNCc2cc(C)cc([N+](=O)[O-])c2)c1` [Compound 2-9, 2-(2,5-dimethoxyphenyl)-N-(3-methyl-5-nitrobenzyl)ethan-1-amine] has an Emax at 0.3 µM of 5%. Compound `COc1ccc(OC)c(CCNCc2cc(C)cc(Br)c2)c1` [Compound 2-10, N-(3-bromo-5-methylbenzyl)-2-(2,5-dimethoxyphenyl)ethan-1-amine] has an Emax at 0.3 µM of 79%. Compound `COc1ccc(OC)c(CCNCc2cc(C)cc(I)c2)c1` [Compound 2-11, 2-(2,5-dimethoxyphenyl)-N-(3-iodo-5-methylbenzyl)ethan-1-amine] has an Emax at 0.3 µM of 76%. `COc1ccc(OC)c(CCNCc2cc(Cl)ccc2C)c1` [Compound 2-12, N-(5-chloro-2-methylbenzyl)-2-(2,5-dimethoxyphenyl)ethan-1-amine] was tested, and the Emax at 0.3 µM was 41%. For `COc1ccc(OC)c(CCNCc2ccc(Cl)c(C)c2)c1` [Compound 2-14, N-(4-chloro-3-methylbenzyl)-2-(2,5-dimethoxyphenyl)ethan-1-amine], the Emax at 0.3 µM was 1%. Work on `COc1ccc(OC)c(CCNCc2cccc(Cl)c2C)c1` [Compound 2-15] yielded an Emax at 0.3 µM of 20%. Compound `COc1ccc(OC)c(CCNCc2cccc(C)c2Cl)c1` [Compound 2-16, N-(2-chloro-3-methylbenzyl)-2-(2,5-dimethoxyphenyl)ethan-1-amine] has an Emax at 0.3 µM of 64%. For `COc1cc(CCNCc2cc(C)cc(Cl)c2)c(OC)cc1C` [Compound 2-18, N-(3-chloro-5-methylbenzyl)-2-(2,5-dimethoxy-4-methylphenyl)ethan-1-amine], the Emax at 0.3 µM was 94%. `CCc1cc(OC)c(CCNCc2cc(C)cc(Cl)c2)cc1OC` [Compound 2-19, N-(3-chloro-5-methylbenzyl)-2-(4-ethyl-2,5-dimethoxyphenyl)ethan-1-amine] was tested, and the Emax at 0.3 µM was 84%. `COc1cc(CCNCc2cc(C)cc(Cl)c2)c(OC)cc1F` [Compound 2-20, N-(3-chloro-5-methylbenzyl)-2-(4-fluoro-2,5-dimethoxyphenyl)ethan-1-amine] showed an Emax at 0.3 µM of 89%. For `COc1cc(CCNCc2cc(C)cc(Cl)c2)c(OC)cc1Cl` [Compound 2-21, 2-(4-chloro-2,5-dimethoxyphenyl)-N-(3-chloro-5-methylbenzyl)ethan-1-amine], the Emax at 0.3 µM was 92%. `COc1cc(CCNCc2cc(C)cc(Cl)c2)c(OC)cc1Br` [Compound 2-22, 2-(4-bromo-2,5-dimethoxyphenyl)-N-(3-chloro-5-methylbenzyl)ethan-1-amine] showed an Emax at 0.3 µM of 85%. `COc1cc(CCNCc2cc(C)cc(Cl)c2)c(OC)cc1C#N` [Compound 2-23, 4-(2-((3-chloro-5-methylbenzyl)amino)ethyl)-2,5-dimethoxybenzonitrile] was tested, and the Emax at 0.3 µM was 96%. Work on `COc1cc(SC)c(OC)cc1CCNCc1cc(C)cc(Cl)c1` [Compound 2-24, N-(3-chloro-5-methylbenzyl)-2-(2,5-dimethoxy-4-(methylthio)phenyl)ethan-1-amine] yielded an Emax at 0.3 µM of 91%. `COc1cc([S+](C)[O-])c(OC)cc1CCNCc1cc(C)cc(Cl)c1` (stereo not shown) [Compound 2-25, N-(3-chloro-5-methylbenzyl)-2-(2,5-dimethoxy-4-(methylsulfinyl)phenyl)-ethan-1-amine] showed an Emax at 0.3 µM of 95%. In the case of `COc1cc(S(C)(=O)=O)c(OC)cc1CCNCc1cc(C)cc(Cl)c1` [Compound 2-26, (3-chloro-5-methylbenzyl)-2-(2,5-dimethoxy-4-(methylsulfonyl)phenyl)ethan-1-amine], the Emax at 0.3 µM is reported as 95%. With `COc1ccc(OC)c(CC(CO)NCc2cc(C)cc(Cl)c2)c1` (stereo not shown) [Compound 2-29, 2-((3-chloro-5-methylbenzyl)amino)-3-(2,5-dimethoxyphenyl)propan-1-ol] the Emax at 0.3 µM was 27%. With `COc1ccc(OC)c(C(O)CNCc2cc(C)cc(Cl)c2)c1` (stereo not shown) [Compound 2-30, 2-((3-chloro-5-methylbenzyl)amino)-1-(2,5-dimethoxyphenyl)ethan-1-ol] the Emax at 0.3 µM was 80%. Compound `COc1cc(N2CCOCC2)c(OC)cc1CCNCc1cc(C)cc(Cl)c1` [Compound 2-31, N-(3-chloro-5-methylbenzyl)-2-(2,5-dimethoxy-4-morpholinophenyl)ethan-1-amine] has an Emax at 0.3 µM of 41%. `COc1ccc(OC)c([C@@H](O)CNCc2cc(C)cc(Cl)c2)c1` [Compound 2-32, (R)-2-((3-chloro-5-methylbenzyl)amino)-1-(2,5-dimethoxyphenyl)ethan-1-ol] showed an Emax at 0.3 µM of 83%. In the case of `COc1ccc(OC)c([C@H](O)CNCc2cc(C)cc(Cl)c2)c1` [Compound 2-33, (S)-2-((3-chloro-5-methylbenzyl)amino)-1-(2,5-dimethoxyphenyl)ethan-1-ol], the Emax at 0.3 µM is reported as 39%. Work on `COc1cc([S@](C)(=N)=O)c(OC)cc1CCNCc1cc(C)cc(Cl)c1` [Compound 2-34, (R)-(4-(2-((3-chloro-5-methylbenzyl)amino)ethyl)-2,5-dimethoxyphenyl)(imino)(methyl)-16-sulfanone] yielded an Emax at 0.3 µM of 56%. Work on `COc1cc([S@@](C)(=N)=O)c(OC)cc1CCNCc1cc(C)cc(Cl)c1` [Compound 2-35, (S)-(4-(2-((3-chloro-5-methylbenzyl)amino)ethyl)-2,5-dimethoxyphenyl)(imino)(methyl)-16-sulfanone] yielded an Emax at 0.3 µM of 50%. Compound `COc1ccc(OC)c(CCNCc2cc(C)cc(C#N)c2)c1` [Compound 2-36, 3-(((2,5-dimethoxyphenethyl)amino)methyl)-5-methylbenzonitrile] has an Emax at 0.3 µM of 16%. `COc1ccc(OC)c([C@@H](O)CNCc2cc(C)cc(F)c2)c1` [Compound 2-41, (R)-1-(2,5-dimethoxyphenyl)-2-((3-fluoro-5-methylbenzyl)amino)ethan-1-ol hydrochloride] gave an Emax at 0.3 µM of 74%.
